Assay results as given in paper PMC11167047 (Cell Death Discovery, 2024).

Assays:
Test in all cases: kinome screen (33PanQinase)
Type in all cases: biochemical
WNK2 = target: T1, WNK2 (Homo sapiens, UniProt Q9Y3S1)
T1 construct: purchased Reaction Biology Europe GmbH (formerly ProQinase)
Procedure: (§1) The Kinome Screening was performed by Reaction Biology Europe GmbH (http://reactionbiology.com; Freiburg i. Br., Germany).

VRK2 = target: T2, VRK2 (Homo sapiens, UniProt Q86Y07)
T2 construct: purchased Reaction Biology Europe GmbH (formerly ProQinase)
T2 sequence (Q86Y07 whole entry): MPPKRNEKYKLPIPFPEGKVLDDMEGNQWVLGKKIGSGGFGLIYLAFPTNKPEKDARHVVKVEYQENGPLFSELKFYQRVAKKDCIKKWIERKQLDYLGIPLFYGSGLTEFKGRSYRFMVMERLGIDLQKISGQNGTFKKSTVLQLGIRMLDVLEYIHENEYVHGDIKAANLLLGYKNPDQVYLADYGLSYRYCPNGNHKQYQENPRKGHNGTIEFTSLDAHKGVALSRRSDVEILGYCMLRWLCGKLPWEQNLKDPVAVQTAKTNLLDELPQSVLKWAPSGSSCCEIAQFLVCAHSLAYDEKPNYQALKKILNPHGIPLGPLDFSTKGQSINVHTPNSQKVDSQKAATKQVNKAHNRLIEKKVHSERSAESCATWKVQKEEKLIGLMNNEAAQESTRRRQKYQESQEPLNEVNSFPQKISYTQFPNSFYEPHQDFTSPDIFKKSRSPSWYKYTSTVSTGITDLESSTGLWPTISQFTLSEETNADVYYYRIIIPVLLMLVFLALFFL
Procedure: as §1

PRK1 = target: T3, PRK1 (Homo sapiens, UniProt Q16512)
T3 construct: purchased Reaction Biology Europe GmbH (formerly ProQinase)
Procedure: as §1

JAK3 = target: T4, JAK3 (Homo sapiens, UniProt P52333)
T4 construct: purchased Reaction Biology Europe GmbH (formerly ProQinase)
T4 sequence (P52333 1-1124): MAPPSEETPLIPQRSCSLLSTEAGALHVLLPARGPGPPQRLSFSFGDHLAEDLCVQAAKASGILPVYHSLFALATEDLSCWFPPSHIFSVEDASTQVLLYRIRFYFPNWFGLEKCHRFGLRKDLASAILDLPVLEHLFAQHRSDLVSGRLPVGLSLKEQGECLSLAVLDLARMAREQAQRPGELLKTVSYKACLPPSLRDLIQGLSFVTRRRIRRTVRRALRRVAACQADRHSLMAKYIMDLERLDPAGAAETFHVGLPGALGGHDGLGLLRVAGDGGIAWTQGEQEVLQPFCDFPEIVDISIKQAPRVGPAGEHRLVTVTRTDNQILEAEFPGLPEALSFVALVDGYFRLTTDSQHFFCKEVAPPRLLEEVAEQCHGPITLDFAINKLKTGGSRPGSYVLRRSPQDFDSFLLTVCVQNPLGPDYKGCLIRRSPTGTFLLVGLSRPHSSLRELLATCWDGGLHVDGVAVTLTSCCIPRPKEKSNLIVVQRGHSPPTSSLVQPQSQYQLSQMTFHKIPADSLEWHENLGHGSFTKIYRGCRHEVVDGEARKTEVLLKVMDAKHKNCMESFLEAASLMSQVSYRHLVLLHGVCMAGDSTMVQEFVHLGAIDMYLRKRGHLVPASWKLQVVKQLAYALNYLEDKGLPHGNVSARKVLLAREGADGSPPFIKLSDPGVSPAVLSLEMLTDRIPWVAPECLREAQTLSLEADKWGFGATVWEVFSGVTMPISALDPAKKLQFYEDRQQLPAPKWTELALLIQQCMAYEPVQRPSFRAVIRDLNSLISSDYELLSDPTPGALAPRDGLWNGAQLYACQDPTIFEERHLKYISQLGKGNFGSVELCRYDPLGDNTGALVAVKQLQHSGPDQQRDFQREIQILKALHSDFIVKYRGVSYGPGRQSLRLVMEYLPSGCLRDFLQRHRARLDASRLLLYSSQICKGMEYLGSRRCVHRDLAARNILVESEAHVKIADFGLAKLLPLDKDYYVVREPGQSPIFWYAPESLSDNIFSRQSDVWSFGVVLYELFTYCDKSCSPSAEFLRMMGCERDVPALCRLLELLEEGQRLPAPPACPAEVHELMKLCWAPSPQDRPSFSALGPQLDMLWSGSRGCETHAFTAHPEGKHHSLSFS
Procedure: as §1

MEK2 = target: T5, MEK2 (Homo sapiens, UniProt P36507)
T5 construct: purchased Reaction Biology Europe GmbH (formerly ProQinase)
T5 sequence (P36507 whole entry): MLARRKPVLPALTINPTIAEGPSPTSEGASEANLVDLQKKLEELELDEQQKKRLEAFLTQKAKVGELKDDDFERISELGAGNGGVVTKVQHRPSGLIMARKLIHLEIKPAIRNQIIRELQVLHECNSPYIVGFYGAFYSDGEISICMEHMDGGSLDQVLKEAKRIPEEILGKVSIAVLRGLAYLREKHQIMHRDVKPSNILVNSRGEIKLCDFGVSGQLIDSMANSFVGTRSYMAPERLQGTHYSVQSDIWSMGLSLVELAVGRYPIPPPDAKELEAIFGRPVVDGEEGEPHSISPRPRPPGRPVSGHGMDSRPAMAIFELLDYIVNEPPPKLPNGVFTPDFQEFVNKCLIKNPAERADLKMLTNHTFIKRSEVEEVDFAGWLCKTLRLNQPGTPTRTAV
Procedure: as §1

PRK2 = target: T6, PRK2 (Homo sapiens, UniProt Q16513)
T6 construct: purchased Reaction Biology Europe GmbH (formerly ProQinase)
T6 sequence (Q16513 whole entry): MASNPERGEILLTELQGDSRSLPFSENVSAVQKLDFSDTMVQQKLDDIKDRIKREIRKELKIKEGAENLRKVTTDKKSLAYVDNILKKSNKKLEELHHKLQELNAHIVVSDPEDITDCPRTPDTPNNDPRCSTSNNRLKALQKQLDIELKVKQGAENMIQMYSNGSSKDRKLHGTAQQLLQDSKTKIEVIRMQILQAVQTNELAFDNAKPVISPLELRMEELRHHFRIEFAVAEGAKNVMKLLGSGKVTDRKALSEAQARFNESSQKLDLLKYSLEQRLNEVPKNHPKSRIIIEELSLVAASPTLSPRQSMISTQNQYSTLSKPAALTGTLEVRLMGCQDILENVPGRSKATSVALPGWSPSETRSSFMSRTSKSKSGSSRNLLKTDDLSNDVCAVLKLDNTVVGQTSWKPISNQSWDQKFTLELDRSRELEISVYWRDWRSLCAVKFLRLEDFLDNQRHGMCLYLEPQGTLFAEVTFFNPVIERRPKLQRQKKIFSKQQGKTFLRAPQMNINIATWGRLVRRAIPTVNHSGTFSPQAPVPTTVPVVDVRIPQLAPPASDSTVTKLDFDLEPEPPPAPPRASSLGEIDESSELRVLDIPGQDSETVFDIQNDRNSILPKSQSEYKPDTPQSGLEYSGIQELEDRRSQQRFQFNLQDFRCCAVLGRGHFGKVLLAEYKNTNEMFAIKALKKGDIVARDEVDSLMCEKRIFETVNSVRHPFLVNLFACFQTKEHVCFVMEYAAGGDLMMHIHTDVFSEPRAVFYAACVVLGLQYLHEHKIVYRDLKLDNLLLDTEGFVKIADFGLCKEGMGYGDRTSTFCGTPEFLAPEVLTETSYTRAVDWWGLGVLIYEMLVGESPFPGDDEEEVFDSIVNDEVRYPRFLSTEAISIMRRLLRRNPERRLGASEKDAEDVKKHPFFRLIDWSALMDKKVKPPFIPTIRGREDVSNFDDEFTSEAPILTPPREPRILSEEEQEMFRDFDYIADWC
Procedure: as §1

CAMKK2 = target: T7, CAMKK2 (Homo sapiens, UniProt Q96RR4)
T7 construct: purchased Reaction Biology Europe GmbH (formerly ProQinase)
Procedure: as §1

GRK3 = target: T8, GRK3 (Homo sapiens, UniProt P35626)
T8 construct: purchased Reaction Biology Europe GmbH (formerly ProQinase)
T8 sequence (P35626 1-688): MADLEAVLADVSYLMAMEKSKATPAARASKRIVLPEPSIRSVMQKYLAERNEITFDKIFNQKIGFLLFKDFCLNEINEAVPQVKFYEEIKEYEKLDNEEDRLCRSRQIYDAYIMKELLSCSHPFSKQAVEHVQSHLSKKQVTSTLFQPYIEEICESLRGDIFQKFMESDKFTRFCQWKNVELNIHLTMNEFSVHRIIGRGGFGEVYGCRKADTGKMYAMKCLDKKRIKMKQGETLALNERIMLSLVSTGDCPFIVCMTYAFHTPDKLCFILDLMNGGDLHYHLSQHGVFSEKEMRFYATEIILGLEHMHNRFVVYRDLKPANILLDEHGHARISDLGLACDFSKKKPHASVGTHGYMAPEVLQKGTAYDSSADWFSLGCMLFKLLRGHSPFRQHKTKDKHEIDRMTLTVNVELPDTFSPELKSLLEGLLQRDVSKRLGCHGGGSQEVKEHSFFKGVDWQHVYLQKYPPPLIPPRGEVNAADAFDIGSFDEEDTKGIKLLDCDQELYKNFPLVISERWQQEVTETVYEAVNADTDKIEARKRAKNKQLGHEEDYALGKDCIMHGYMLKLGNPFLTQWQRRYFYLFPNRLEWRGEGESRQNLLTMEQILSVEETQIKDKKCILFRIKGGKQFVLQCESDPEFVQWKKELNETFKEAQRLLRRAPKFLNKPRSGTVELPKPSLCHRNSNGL
Procedure: as §1

RIPK2 = target: T9, RIPK2 (Homo sapiens, UniProt O43353)
T9 construct: purchased Reaction Biology Europe GmbH (formerly ProQinase)
T9 sequence (O43353 whole entry): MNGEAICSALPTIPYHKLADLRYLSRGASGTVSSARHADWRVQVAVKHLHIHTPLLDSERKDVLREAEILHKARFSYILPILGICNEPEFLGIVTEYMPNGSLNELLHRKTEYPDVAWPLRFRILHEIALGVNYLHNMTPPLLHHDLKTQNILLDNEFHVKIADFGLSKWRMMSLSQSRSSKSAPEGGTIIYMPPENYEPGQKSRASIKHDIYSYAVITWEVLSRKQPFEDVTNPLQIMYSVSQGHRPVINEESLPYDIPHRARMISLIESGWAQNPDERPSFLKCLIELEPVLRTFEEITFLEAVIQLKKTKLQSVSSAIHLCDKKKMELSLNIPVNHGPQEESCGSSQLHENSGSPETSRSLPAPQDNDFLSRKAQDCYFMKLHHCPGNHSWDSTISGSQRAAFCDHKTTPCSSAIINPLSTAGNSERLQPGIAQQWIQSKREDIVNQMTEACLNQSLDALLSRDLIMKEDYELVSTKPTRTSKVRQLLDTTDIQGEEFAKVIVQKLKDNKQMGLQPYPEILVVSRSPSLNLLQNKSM
Procedure: as §1

AuroraA = target: T10, AuroraA (Homo sapiens, UniProt O14965)
T10 construct: purchased Reaction Biology Europe GmbH (formerly ProQinase)
T10 sequence (O14965 1-403): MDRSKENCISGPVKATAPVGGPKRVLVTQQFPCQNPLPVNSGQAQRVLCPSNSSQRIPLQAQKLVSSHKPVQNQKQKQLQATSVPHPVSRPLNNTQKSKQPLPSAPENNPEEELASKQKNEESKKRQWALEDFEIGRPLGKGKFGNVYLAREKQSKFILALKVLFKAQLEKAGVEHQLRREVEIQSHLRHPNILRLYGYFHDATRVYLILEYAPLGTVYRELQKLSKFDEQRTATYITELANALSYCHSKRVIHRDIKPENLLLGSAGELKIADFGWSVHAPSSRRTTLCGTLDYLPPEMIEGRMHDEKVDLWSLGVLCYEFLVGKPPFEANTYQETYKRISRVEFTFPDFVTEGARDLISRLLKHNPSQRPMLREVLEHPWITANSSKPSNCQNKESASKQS
Procedure: as §1

T1 sequence (Q9Y3S1 whole entry): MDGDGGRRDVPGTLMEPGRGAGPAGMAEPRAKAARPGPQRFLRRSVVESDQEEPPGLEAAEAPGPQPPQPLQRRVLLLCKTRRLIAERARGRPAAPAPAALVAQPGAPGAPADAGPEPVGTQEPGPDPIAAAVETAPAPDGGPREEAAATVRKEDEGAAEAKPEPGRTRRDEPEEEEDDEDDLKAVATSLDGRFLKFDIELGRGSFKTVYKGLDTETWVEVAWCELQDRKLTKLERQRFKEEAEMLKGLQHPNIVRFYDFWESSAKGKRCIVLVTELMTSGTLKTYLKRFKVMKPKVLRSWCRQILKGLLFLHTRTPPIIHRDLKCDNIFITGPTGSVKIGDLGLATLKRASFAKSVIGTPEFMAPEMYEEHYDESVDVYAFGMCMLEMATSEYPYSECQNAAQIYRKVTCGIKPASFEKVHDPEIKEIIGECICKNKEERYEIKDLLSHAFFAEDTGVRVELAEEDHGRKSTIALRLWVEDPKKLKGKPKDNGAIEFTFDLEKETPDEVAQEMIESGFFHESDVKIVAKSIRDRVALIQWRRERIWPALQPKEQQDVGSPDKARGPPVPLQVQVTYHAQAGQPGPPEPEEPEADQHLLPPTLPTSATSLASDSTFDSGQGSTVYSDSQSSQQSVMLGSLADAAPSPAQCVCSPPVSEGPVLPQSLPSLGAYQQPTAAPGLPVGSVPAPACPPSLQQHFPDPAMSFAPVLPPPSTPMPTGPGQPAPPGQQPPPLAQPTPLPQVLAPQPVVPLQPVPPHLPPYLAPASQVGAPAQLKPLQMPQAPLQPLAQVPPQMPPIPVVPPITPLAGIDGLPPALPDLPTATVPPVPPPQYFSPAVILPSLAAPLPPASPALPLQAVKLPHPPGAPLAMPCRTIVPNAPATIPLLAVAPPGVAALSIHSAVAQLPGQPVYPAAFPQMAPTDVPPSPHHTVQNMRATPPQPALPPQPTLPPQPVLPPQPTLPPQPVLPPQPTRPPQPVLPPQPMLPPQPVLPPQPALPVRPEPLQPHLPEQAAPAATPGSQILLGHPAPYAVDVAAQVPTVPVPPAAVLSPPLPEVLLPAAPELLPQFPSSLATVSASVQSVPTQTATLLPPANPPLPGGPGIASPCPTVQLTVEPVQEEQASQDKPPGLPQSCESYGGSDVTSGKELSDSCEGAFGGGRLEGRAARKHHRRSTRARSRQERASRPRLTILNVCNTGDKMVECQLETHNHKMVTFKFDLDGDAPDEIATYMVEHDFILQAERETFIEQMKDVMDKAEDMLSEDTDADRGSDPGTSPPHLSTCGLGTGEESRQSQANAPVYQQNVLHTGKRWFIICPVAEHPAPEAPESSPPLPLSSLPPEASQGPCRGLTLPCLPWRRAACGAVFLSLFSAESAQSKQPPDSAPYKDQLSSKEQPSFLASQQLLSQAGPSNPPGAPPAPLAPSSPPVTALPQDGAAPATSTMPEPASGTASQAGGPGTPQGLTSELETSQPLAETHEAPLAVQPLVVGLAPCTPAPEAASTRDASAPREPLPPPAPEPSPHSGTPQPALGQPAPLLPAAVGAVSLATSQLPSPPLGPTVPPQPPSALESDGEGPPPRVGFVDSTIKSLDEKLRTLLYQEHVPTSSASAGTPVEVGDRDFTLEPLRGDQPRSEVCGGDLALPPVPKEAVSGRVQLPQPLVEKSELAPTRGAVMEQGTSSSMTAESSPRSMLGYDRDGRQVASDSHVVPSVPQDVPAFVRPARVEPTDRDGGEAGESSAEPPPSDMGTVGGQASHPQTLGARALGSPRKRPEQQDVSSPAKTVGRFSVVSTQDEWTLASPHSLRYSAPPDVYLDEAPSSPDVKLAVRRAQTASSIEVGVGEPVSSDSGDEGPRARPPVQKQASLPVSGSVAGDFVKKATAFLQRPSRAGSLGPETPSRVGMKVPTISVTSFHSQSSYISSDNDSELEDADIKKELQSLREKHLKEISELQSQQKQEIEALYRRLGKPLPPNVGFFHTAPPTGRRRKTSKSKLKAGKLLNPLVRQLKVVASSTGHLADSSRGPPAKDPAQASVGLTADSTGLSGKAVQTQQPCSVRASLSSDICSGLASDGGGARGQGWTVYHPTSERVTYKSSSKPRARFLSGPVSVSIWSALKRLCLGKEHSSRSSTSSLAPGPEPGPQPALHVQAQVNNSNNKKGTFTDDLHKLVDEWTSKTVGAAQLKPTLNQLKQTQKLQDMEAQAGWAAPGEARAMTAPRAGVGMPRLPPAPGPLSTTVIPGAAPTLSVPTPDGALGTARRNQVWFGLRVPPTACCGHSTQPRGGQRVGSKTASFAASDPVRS

COc1ccnc2[nH]cc(-c3cc(N)nc(N)c3)c12 [meriolin 16]
residual kinase activity (WNK2; 0.03 µM): 99 % of control | residual kinase activity (WNK2; 0.3 µM): 86 % of control | residual kinase activity (VRK2; 0.03 µM): 103 % of control | residual kinase activity (VRK2; 0.3 µM): 92 % of control | residual kinase activity (PRK1; 0.03 µM): 84 % of control | residual kinase activity (PRK1; 0.3 µM): 35 % of control | residual kinase activity (JAK3; 0.03 µM): 58 % of control | residual kinase activity (JAK3; 0.3 µM): 15 % of control | residual kinase activity (MEK2; 0.03 µM): 66 % of control | residual kinase activity (MEK2; 0.3 µM): 48 % of control | residual kinase activity (PRK2; 0.03 µM): 90 % of control | residual kinase activity (PRK2; 0.3 µM): 42 % of control | residual kinase activity (CAMKK2; 0.03 µM): 92 % of control | residual kinase activity (CAMKK2; 0.3 µM): 55 % of control | residual kinase activity (GRK3; 0.03 µM): 111 % of control | residual kinase activity (GRK3; 0.3 µM): 107 % of control | residual kinase activity (RIPK2; 0.03 µM): 95 % of control | residual kinase activity (RIPK2; 0.3 µM): 78 % of control | residual kinase activity (AuroraA; 0.03 µM): 109 % of control | residual kinase activity (AuroraA; 0.3 µM): 107 % of control

c1ccc(CNc2cc(-c3c[nH]c4ncccc34)ccn2)cc1 [meriolin 36]
residual kinase activity (WNK2; 0.3 µM): 86 % of control | residual kinase activity (WNK2; 3 µM): 74 % of control | residual kinase activity (VRK2; 0.3 µM): 93 % of control | residual kinase activity (VRK2; 3 µM): 45 % of control | residual kinase activity (PRK1; 0.3 µM): 17 % of control | residual kinase activity (PRK1; 3 µM): 3 % of control | residual kinase activity (JAK3; 0.3 µM): 5 % of control | residual kinase activity (JAK3; 3 µM): -1 % of control | residual kinase activity (MEK2; 0.3 µM): 13 % of control | residual kinase activity (MEK2; 3 µM): 3 % of control | residual kinase activity (PRK2; 0.3 µM): 8 % of control | residual kinase activity (PRK2; 3 µM): 0 % of control | residual kinase activity (CAMKK2; 0.3 µM): 9 % of control | residual kinase activity (CAMKK2; 3 µM): 1 % of control | residual kinase activity (GRK3; 0.3 µM): 98 % of control | residual kinase activity (GRK3; 3 µM): 74 % of control | residual kinase activity (RIPK2; 0.3 µM): 61 % of control | residual kinase activity (RIPK2; 3 µM): 33 % of control | residual kinase activity (AuroraA; 0.3 µM): 81 % of control | residual kinase activity (AuroraA; 3 µM): 35 % of control
